Entries after “also recorded” stand apart in the source; their conditions may differ.
B1: collagen III: intact collagen III (protein)
chain: QQEAVEGGCSHLGQSYADRDVWKPEPCQICVCDSGSVLCDDIICDDQELDCPNPEIPFGECCAVCPQPPTAPTRPPNGQGPQGPKGDPGPPGIPGRNGDPGIPGQPGSPGSPGPPGICESCPTGPQNYSPQYDSYDVKSGVAVGGLAGYPGPAGPPGPPGPPGTSGHPGSPGSPGYQGPPGEPGQAGPSGPPGPPGAIGPSGPAGKDGESGRPGRPGERGLPGPPGIKGPAGIPGFPGMKGHRGFDGRNGEKGETGAPGLKGENGLPGENGAPGPMGPRGAPGERGRPGLPGAAGARGNDGARGSDGQPGPPGPPGTAGFPGSPGAKGEVGPAGSPGSNGAPGQRGEPGPQGHAGAQGPPGPPGINGSPGGKGEMGPAGIPGAPGLMGARGPPGPAGANGAPGLRGGAGEPGKNGAKGEPGPRGERGEAGIPGVPGAKGEDGKDGSPGEPGANGLPGAAGERGAPGFRGPAGPNGIPGEKGPAGERGAPGPAGPRGAAGEPGRDGVPGGPGMRGMPGSPGGPGSDGKPGPPGSQGESGRPGPPGPSGPRGQPGVMGFPGPKGNDGAPGKNGERGGPGGPGPQGPPGKNGETGPQGPPGPTGPGGDKGDTGPPGPQGLQGLPGTGGPPGENGKPGEPGPKGDAGAPGAPGGKGDAGAPGERGPPGLAGAPGLRGGAGPPGPEGGKGAAGPPGPPGAAGTPGLQGMPGERGGLGSPGPKGDKGEPGGPGADGVPGKDGPRGPTGPIGPPGPAGQPGDKGEGGAPGLPGIAGPRGSPGERGETGPPGPAGFPGAPGQNGEPGGKGERGAPGEKGEGGPPGVAGPPGGSGPAGPPGPQGVKGERGSPGGPGAAGFPGARGLPGPPGSNGNPGPPGPSGSPGKDGPPGPAGNTGAPGSPGVSGPKGDAGQPGEKGSPGAQGPPGAPGPLGIAGITGARGLAGPPGMPGPRGSPGPQGVKGESGKPGANGLSGERGPPGPQGLPGLAGTAGEPGRDGNPGSDGLPGRDGSPGGKGDRGENGSPGAPGAPGHPGPPGPVGPAGKSGDRGESGPAGPAGAPGPAGSRGAPGPQGPRGDKGETGERGAAGIKGHRGFPGNPGAPGSPGPAGQQGAIGSPGPAGPRGPVGPSGPPGKDGTSGHPGPIGPPGPRGNRGERGSEGSPGHPGQPGPPGPPGAPGPCCGGVGAAAIAGIGGEKAGGFAPYYG

How the values were obtained:
[1] = tested on: α10β1; assay: Overall recognition by α10β1 (I domain and C2C12-α10β1 cells, summary); conditions: abstract and discussion; I domain and/or C2C12-α10β1 cells
Protocol: I domain adhesion was determined colorimetrically, as described, here termed solid phase binding assay (SPBA). Peptides were coated at 10 μg/ml for 1 h at 22 °C on Immulon-2 HB 96-well plates (Thermo Life Sciences, Basingstoke, UK), and blocked for 1 h with 200 μl of TBS containing 50 mg/ml bovine serum albumin. Wells were washed four times with 200 μl of the adhesion buffer (TBS with 1 mg/ml bovine serum albumin) before adding 100 μl of adhesion buffer containing 10 μg/ml of recombinant GST I domains in the presence of either 2 mM MgCl2 or EDTA for 1 h at room temperature. Wells were washed five times with 200 μl of adhesion buffer containing MgCl2 or EDTA, before adding 100 μl of adhesion buffer containing the anti-GST-HRP conjugate at 1:10,000 dilution for 1 h at room temperature. After washing, colour was developed using an ImmunoPure TMB Substrate Kit (Pierce) according to the manufacturer's instructions.
(§1) The mouse myoblast cell line, C2C12, (control and transfectants, C2C12-α1β1, C2C12-α2β1, C2C12-α10β1 or C2C12-α11β1) was maintained in RPMI medium containing 10% fetal bovine serum, 2 mM glutamine, 100 IU/ml penicillin, 100 μg/ml streptomycin, and 2.5 μg/ml amphotericin. Cells were harvested by centrifugation, washed, and suspended at 0.5 × 10^6/ml in Tris-buffered saline supplemented with 5.5 mM glucose and either 2 mM EDTA or 2 mM MgCl2. SPBA was performed as follows: 100 μl of the cell suspension was added to peptide-coated wells [42] at 20 °C for 60 min. Cell adhesion was determined colorimetrically after lysis, using a lactate dehydrogenase (LDH)-based cell detection kit (Roche Diagnostics) according to the supplier's instructions.
(§2) To quantitate C2C12-α10β1 binding to collagen peptides, we used the impedance-based xCELLigence system (Acea) that allows label-free, dynamic monitoring of cell adhesion in real-time. The assay system expresses the adhesion-dependent rise in well impedance in units of cell index (CI), defined as (Rn − Rb) / 15; where Rn is the electrical impedance of each cell-containing well and Rb is the background impedance of the well with medium alone

[2] = tested on: C2C12-α10β1 cells; assay: LDH-based SPBA of C2C12-α10β1 cell adhesion; design: species or system mouse; conditions: short THPs, 2 mM Mg^2 +, 1 h, Fig. 4B
Protocol: The mouse myoblast cell line, C2C12-α10β1 clone, expresses α10β1 as its sole collagen-binding integrin [16]. To investigate the binding of α10β1 to collagen in a cellular and whole integrin context, therefore, the adhesion of C2C12-α10β1 cells to Toolkits II and III was performed using two different approaches. First, SPBA was used, with lactate dehydrogenase to report the presence of adherent cells, after lysis, as described in Experimental. […] C2C12-α10B1 cells generally bound more prominently to those weaker peptides that supported just-observable binding of free I-domain. This may reflect avidity of the receptor-populated cell surface for the peptide-coated wells, or perhaps up-regulation of integrin affinity following receptor engagement. It is also possible that some cell binding reflects specific indirect interactions. For example, fibronectin, available either by intrinsic expression or from the serum supplement, binds well to II-44, and can also bind integrin αVβ3 [21].
Fig. 2 Binding of α10β1-transfected C2C12 cells to Collagen Toolkits. 96-well plates were coated with peptides as for Fig. 1, then C2C12-α10β1 cells (5 × 10^4 per well) were added and incubated for 1 h in the presence of either 2 mM MgCl2 or 2 mM EDTA as above. A: binding to Toolkit II. B: binding to Toolkit III.
as §1

[3] = tested on: C2C12-α10β1 cells; assay: xCELLigence real-time adhesion of C2C12-α10β1 cells; assay type: cell-based, mouse; conditions: 2.5 × 10^4 cells/well, 2 mM Mg^2 +, over 1 h, Fig. 3A
Protocol: Fig. 3 Binding of α10β1-transfected C2C12 cells to collagens and selected Toolkit peptides. Peptides or collagens were coated on ePlates as described, then cells were added in the presence of 2 mM Mg^2 + or EDTA, and Cell Index value was collected over 1 h. […] B: time courses are shown of adhesion to selected Toolkit peptides or GPP-10.
as §2
Briefly, C2C12 cells were seeded at 2.5 × 10^4 cells/well in an E-plate (Roche Applied Science) pre-coated with peptides as for SPBA, and CI was measured for up to 2 h.

[4] = tested on: α2β1; design: method as in 4 sources, ref [8], [10] = [8]; PMID 16326707; doi:10.1074/jbc.M509818200; 8 Raynal N. Hamaia S.W. Siljander P.R. Maddox B. Peachey A.R. Fernandez R. Foley L.J. Slatter D.A. Jarvis G.E. Farndale R.W. Use of synthetic peptides to locate novel integrin alpha2beta1-binding moti || [10]; PMID 16043429; doi:10.1074/jbc.M502431200; 10 Kim J.K. Xu Y. Xu X. Keene D.R. Gurusiddappa S. Liang X. Wary K.K. Hook M. A novel binding site in collagen type III for the integrins, alpha 1beta 1 and alpha 2beta 1 J. Biol. Chem. 280 2005 32512 ||| ref not given ||| ref [4] = [4]; PMID 19693543; doi:10.1007/s00441-009-0834-6; 4 Barczyk M. Carracedo S. Gullberg D. Integrins Cell Tissue Res. 339 1 2010 269 280 19693543 10.1007/s00441-009-0834-6 PMC2784866 ||| ref [12] = [12]; PMID 22654115; doi:10.1074/jbc.M112.353144; 12 Hamaia S.W. Pugh N. Raynal N. Nemoz B. Stone R. Gullberg D. Bihan D. Farndale R.W. Mapping of potent and specific binding motifs, GLOGEN and GVOGEA, for integrin alpha1beta1 using collagen toolkits; conditions: cited from earlier work
[5] = tested on: collagen-binding integrins; design: method as in 3 sources, ref [7], [8] = [7]; PMID 10778855; doi:10.1016/S0092-8674(00)80622-4; 7 Emsley J. Knight C.G. Farndale R.W. Barnes M.J. Liddington R.C. Structural basis of collagen recognition by integrin alpha2beta1 Cell 101 1 2000 47 56 10778855 10.1016/S0092-8674(00)80622-4 || [8]; PMID 16326707; doi:10.1074/jbc.M509818200; 8 Raynal N. Hamaia S.W. Siljander P.R. Maddox B. Peachey A.R. Fernandez R. Foley L.J. Slatter D.A. Jarvis G.E. Farndale R.W. Use of synthetic peptides to locate novel integrin alpha2beta1-binding moti ||| ref [8], [10] = [8]; PMID 16326707; doi:10.1074/jbc.M509818200; 8 Raynal N. Hamaia S.W. Siljander P.R. Maddox B. Peachey A.R. Fernandez R. Foley L.J. Slatter D.A. Jarvis G.E. Farndale R.W. Use of synthetic peptides to locate novel integrin alpha2beta1-binding moti || [10]; PMID 16043429; doi:10.1074/jbc.M502431200; 10 Kim J.K. Xu Y. Xu X. Keene D.R. Gurusiddappa S. Liang X. Wary K.K. Hook M. A novel binding site in collagen type III for the integrins, alpha 1beta 1 and alpha 2beta 1 J. Biol. Chem. 280 2005 32512 ||| ref [11] = [11]; PMID 10986291; doi:10.1074/jbc.M007668200; 11 Xu Y. Gurusiddappa S. Rich R.L. Owens R.T. Keene D.R. Mayne R. Hook A. Hook M. Multiple binding sites in collagen type I for the integrins α1β1 and α2β1 J. Biol. Chem. 275 2000 38981 38989 10986291; conditions: ref [11]; cited from earlier work
Text: Many related motifs have now been identified using the Collagen Toolkits developed in this laboratory for the purpose. These are libraries of overlapping peptides of 27 amino acids of collagen primary sequence (guest sequence), flanked ...

[6] = tested on: integrin α1β1; design: method as in 3 sources, ref [4]; PMID 19693543; doi:10.1007/s00441-009-0834-6; 4 Barczyk M. Carracedo S. Gullberg D. Integrins Cell Tissue Res. 339 1 2010 269 280 19693543 10.1007/s00441-009-0834-6 PMC2784866 ||| ref [12] = [12]; PMID 22654115; doi:10.1074/jbc.M112.353144; 12 Hamaia S.W. Pugh N. Raynal N. Nemoz B. Stone R. Gullberg D. Bihan D. Farndale R.W. Mapping of potent and specific binding motifs, GLOGEN and GVOGEA, for integrin alpha1beta1 using collagen toolkits ||| ref not given; conditions: ref [12]; cited from earlier work
Text: The collagen-binding integrin family is complete, with four established members, α1β1, α2β1, α10β1 and α11β1. These are highly-conserved, heterodimeric receptors with an important structural feature in common, the presence of an I (inserted) domain which contains the metal ion-dependent adhesion site (MIDAS). The MIDAS is a constellation of electronegative residues at the distal surface of this 200-residue domain that, in the resting, non-ligated state, can co-ordinate a Mg^2 + ion. […] Many related motifs have now been identified using the Collagen Toolkits developed in this laboratory for the purpose. These are libraries of overlapping peptides of 27 amino acids of collagen primary sequence (guest sequence), flanked ... || Why would collagen II differ in this respect?

Molecule | Recognition by α10β1, summary [1] | Adhesion of C2C12-α10β1 cells to short triple-helical peptides [2] | other results
GKOGER [motif occurring only in collagen X and in the α2 chain of collagen I] | compromised in the context of α10β1; also recorded: α10-repellent |  | 
GLKGEN [short triple-helical peptide containing GLKGEN] |  | less well | 
collagen I: intact collagen I |  |  | Cell adhesion to collagens (Cell Index, endpoint) [3]: bound quite well; Preferred ligand of α2β1 ([4]; ref [4]): preferred ligand
GFOGEK [short triple-helical peptide; motif in collagens IV, VI, X] | now shown to bind α10β1 | less well | 
GAOGER [integrin motif in collagens II, III, IV, VI, VII, IX] | weak ligand |  | 
GASGER [integrin motif in collagens I, XXIII] |  |  | Ligand of collagen-binding integrins, weak motifs [5]: weak ligands
GLOGEA [short triple-helical peptide; motif in collagens IV, XI, XXVII] |  | bound strongly | 
GMOGER [short triple-helical peptide containing GMOGER] |  | less well | 
GRSGET [short THP containing GRSGET, motif unique to collagen II] | not recognised by α10β1; also recorded: α10-repellent |  | 
GVOGEA [integrin motif in collagen II] | moderately good ligand for α10β1 |  | Affinity for integrin α1β1 [6]: moderate ligand; Affinity for α2β1 ([4]; ref [12]): little affinity for α2β1
B1 |  |  | Cell adhesion to collagens (Cell Index, endpoint) [3]: bound quite well
